Results on 25 compounds are retold here after patent publication US9090593B2, “Bicyclic compounds as Pim inhibitors” (AMGEN INC., priority 2010, dated 2015).

For test [1], the target named is T1, full length recombinant Pim-2 protein (Homo sapiens, UniProt Q9P1W9).
T1 construct: by full length recombinant Pim-1, Pim-2, or Pim-3 protein; hexahistidine tag followed by a thrombin cleavage site (N); made in house; host or cells: Sf9 (baculovirus) or E. coli (pET28)
Nature of the test: Pim-2 enzyme assay (HTRF, phosphorylation of biotinylated-BAD (S112) peptide). It is filed as biochemical. The settings on record: enzyme assay, Pim-2; read-out: Pim2_IC50. Put shortly: (§1)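 Inhibition is reported as IC50 from a 4-parameter logistic fit of percent-of-control HTRF signal, which tracks phospho-BAD (S112) formed by full-length human Pim-1 or Pim-2. Reactions ran in 60 mM Hepes, pH 7.0, 0.05% BSA, 2 mM DTT.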
For orientation: Time-resolved FRET reads energy transfer from a long-lived donor to a nearby acceptor.

In test [2] the target is T2, Pim-1 stably transfected into the U2OS human osteogenic sarcoma line (Homo sapiens, UniProt P11309).
T2 construct: expressed in transfected cells; host or cells: U2OS human osteogenic sarcoma line
T2 sequence (P11309 whole entry): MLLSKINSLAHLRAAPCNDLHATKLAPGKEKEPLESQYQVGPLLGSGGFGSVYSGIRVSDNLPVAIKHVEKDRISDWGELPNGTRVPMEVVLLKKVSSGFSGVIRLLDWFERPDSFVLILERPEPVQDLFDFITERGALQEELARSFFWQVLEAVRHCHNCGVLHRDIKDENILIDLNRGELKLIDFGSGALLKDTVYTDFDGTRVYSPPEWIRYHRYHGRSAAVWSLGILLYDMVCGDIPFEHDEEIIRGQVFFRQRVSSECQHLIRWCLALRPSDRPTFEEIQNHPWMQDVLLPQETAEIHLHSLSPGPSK
Nature of the test: Pim cell assay, phospho-BAD normalized against total BAD, U2OS stably transfected with Pim-1. It is filed as cell-based. Particulars: U2OS cells stably transfected with Pim-1, phospho-BAD; high dose […]; read-out: Pim1_Cell_IC50. Put shortly: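 U2OS cells stably expressing Pim-1 or Pim-2 were plated overnight at 37 °C, then dosed over a 10-point curve (final 0.3% DMSO; DMSO alone as high control). Lysates assayed for phospho- and total BAD by Meso Scale immunoassay; % phosphoprotein = (2×phospho)/(phospho+total)×100.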

Test [3] concerns the target T3, full length recombinant Pim-3 protein (Homo sapiens, UniProt Q86V86).
T3 construct: by full length recombinant Pim-1, Pim-2, or Pim-3 protein; purchased Millipore (UK)
Nature of the test: Pim-3 enzyme assay (HTRF, phosphorylation of biotinylated-BAD (S112) peptide). The settings on record: read-out: Pim3 IC50. It is filed as biochemical. From the text:
Pim-3 was purchased from Millipore (UK).
The phosphorylation of biotinylated-BAD (S112) peptide by full length recombinant Pim-1, Pim-2, or Pim-3 protein was detected with streptavidin:Allophycocyanin (APC) conjugate and a europium (Eu) labeled antibody directed against phosphorylated-BAD (S112). […] The fluorescence is directly proportional to the amount of phosphorylated BAD peptide present in the reaction.
A reference compound was included on each assay plate in order to validate that plate; on one plate of every assay run, two additional reference compounds were included.
The final buffer conditions were as follows: 60 mM Hepes, pH 7.0, 0.05% BSA, 2 mM DTT. […] The reaction was stopped by the addition of 3 mM EDTA, and fluorescence was measured by an HTRF® Rubystar microplate reader. For each plate, percent of control (POC) values were calculated for each well. Values for the IC50 IP were estimated using a standard 4-parameter logistic model.

Test [4] concerns the target T4, full length recombinant Pim-1 protein (Homo sapiens, UniProt P11309).
T4 construct: by full length recombinant Pim-1, Pim-2, or Pim-3 protein; hexahistidine tag followed by a thrombin cleavage site (N); made in house; host or cells: Sf9 (baculovirus) or E. coli (pET28)
Nature of the test: Pim-1 enzyme assay (HTRF, phosphorylation of biotinylated-BAD (S112) peptide). It is filed as biochemical. The settings on record: enzyme assay, Pim-1; read-out: Pim_1_IC50. Put shortly: as §1

Structures are written as SMILES.

T1 sequence (Q9P1W9 whole entry): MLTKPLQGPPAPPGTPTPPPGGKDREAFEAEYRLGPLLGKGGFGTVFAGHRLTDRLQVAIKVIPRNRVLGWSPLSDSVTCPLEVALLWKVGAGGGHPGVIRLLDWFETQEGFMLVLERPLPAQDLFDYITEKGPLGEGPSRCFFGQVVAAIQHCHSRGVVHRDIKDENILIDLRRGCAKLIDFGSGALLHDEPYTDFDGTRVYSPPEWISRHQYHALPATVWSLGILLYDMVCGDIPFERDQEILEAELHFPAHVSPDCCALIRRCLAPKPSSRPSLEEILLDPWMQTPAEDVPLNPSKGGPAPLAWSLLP
T4 sequence (P11309 whole entry): as the sequence (P11309 whole entry) above

For the compound `Fc1cccc(F)c1-c1ccc2[nH]nc(-c3cncc(O[C@@H]4CNCC[C@H]4F)n3)c2c1` (single isomer, unassigned) [Example 19, 5-(2,6-difluorophenyl)-3-(6-(trans-4-fluoropiperidin-3-yloxy)pyrazin-2-yl)-1H-indazole], the IC50 in test [1] is 28 nM; in test [2] it was 254 nM; in test [3], 7 nM; in test [4], 5 nM.
Take `CNc1cncc(-c2n[nH]c3ccc(-c4c(F)cccc4F)cc23)n1` [Example 179, 6-(5-(2,6-difluorophenyl)-1H-indazol-3-yl)-N-methyl-2-pyrazinamine]: the results for the IC50 in test [1], in test [3] and in test [4] were 858 nM, 122 nM and 168 nM, respectively.
For `CN(C)c1cncc(-c2n[nH]c3ccc(-c4c(F)cccc4F)cc23)n1` [Example 181, 6-(5-(2,6-difluorophenyl)-1H-indazol-3-yl)-N,N-dimethyl-2-pyrazinamine], in that order: 2080 nM, 146 nM and 206 nM.
For `CNc1nccc(-c2n[nH]c3ccc(-c4c(F)cccc4F)cc23)n1` [Example 192, 4-(5-(2,6-difluorophenyl)-1H-indazol-3-yl)-N-methyl-2-pyrimidinamine], the IC50 stood at 1250 nM in test [1], 175 nM in test [3] and 147 nM in test [4].
For `CC(C)Nc1nccc(-c2n[nH]c3ccc(-c4c(F)cccc4F)cc23)n1` [Example 193, 4-(5-(2,6-difluorophenyl)-1H-indazol-3-yl)-N-(1-methylethyl)-2-pyrimidinamine], the IC50 is 1340 nM in test [1], 143 nM in test [3] and 161 nM in test [4].
The like results for `C[C@@H]1CCNC[C@H]1Oc1cncc(-c2n[nH]c3ccc(-c4c(F)cccc4F)cc23)n1` [Example 197, 5-(2,6-difluorophenyl)-3-(6-(((3S,4R)-4-methyl-3-piperidinyl)oxy)-2-pyrazinyl)-1H-indazole] were, in that order, 187 nM, 18 nM and 37 nM.
For `Fc1cccc(F)c1-c1ccc2[nH]cc(-c3nccc(NC4CCNCC4)n3)c2c1` [Example 210, 2-(5-(2,6-difluorophenyl)-1H-indol-3-yl)-N-4-piperidinyl-4-pyrimidinamine], in that order: 424 nM, 91 nM and 120 nM.
For `Fc1cccc(F)c1-c1ccc2[nH]cc(-c3cncc(O[C@H]4CCCNC4)n3)c2c1` [Example 214, 5-(2,6-difluorophenyl)-3-(6-((3S)-3-piperidinyloxy)-2-pyrazinyl)-1H-indole], the IC50 was found to be 515 nM in test [1], 83 nM in test [3] and 45 nM in test [4].
The like results for `CC(C)Oc1cncc(-c2ccc3[nH]cc(-c4ccc(F)cn4)c3c2)n1` [Example 215, 3-(5-fluoro-2-pyridinyl)-5-(6-(1-methylethoxy)-2-pyrazinyl)-1H-indole] were, in that order, above 3000 nM, 538 nM and 1640 nM.
Regarding `Cc1ccnc(-c2c[nH]c3ccc(-c4cncc(OC(C)C)n4)cc23)c1` [Example 216, 5-(6-(1-methylethoxy)-2-pyrazinyl)-3-(4-methyl-2-pyridinyl)-1H-indole], the IC50 in test [1] was determined as 2150 nM; in test [3], 245 nM; in test [4], 601 nM.
For `CC(C)Oc1cncc(-c2ccc3[nH]cc(-c4cccc(N)n4)c3c2)n1` [Example 217, 6-(5-(6-(1-methylethoxy)-2-pyrazinyl)-1H-indol-3-yl)-2-pyridinamine], in that order: 2350 nM, 156 nM and 765 nM.
For `CC(C)Oc1cncc(-c2ccc3[nH]cc(-c4cc(N)ccn4)c3c2)n1` [Example 218, 2-(5-(6-(1-methylethoxy)-2-pyrazinyl)-1H-indol-3-yl)-4-pyridinamine], in that order: above 3000 nM, 317 nM and 805 nM.
For `Cc1ccc(-c2c[nH]c3ccc(-c4cncc(OC(C)C)n4)cc23)nc1` [Example 219, 5-(6-(1-methylethoxy)-2-pyrazinyl)-3-(5-methyl-2-pyridinyl)-1H-indole], in that order: above 3000 nM, 692 nM and 1130 nM.
Consider `CC(C)Oc1cncc(-c2ccc3[nH]cc(-c4cccc(N5CCOCC5)n4)c3c2)n1` [Example 220, 5-(6-(1-methylethoxy)-2-pyrazinyl)-3-(6-(4-morpholinyl)-2-pyridinyl)-1H-indole], for which the IC50 in test [1] was above 3000 nM; in test [3] it was 329 nM; in test [4], 494 nM.
In the case of `COc1cnc(-c2c[nH]c3ccc(-c4cncc(OC(C)C)n4)cc23)cn1` [Example 222, 3-(5-methoxy-2-pyrazinyl)-5-(6-(1-methylethoxy)-2-pyrazinyl)-1H-indole], the IC50 in test [1] is above 3000 nM; in test [3], 445 nM; in test [4], 732 nM.
For `CC(C)Oc1cncc(-c2ccc3[nH]cc(-c4cccc(-n5cccn5)n4)c3c2)n1` [Example 223, 5-(6-(1-methylethoxy)-2-pyrazinyl)-3-(6-(1H-pyrazol-1-yl)-2-pyridinyl)-1H-indole], in that order: above 3000 nM, 150 nM and 142 nM.
Regarding `COc1cncc(-c2c[nH]c3ccc(-c4cncc(OC(C)C)n4)cc23)n1` [Example 224, 3-(6-methoxy-2-pyrazinyl)-5-(6-(1-methylethoxy)-2-pyrazinyl)-1H-indole], the IC50 in test [1] is 2270 nM; in test [3], 126 nM; in test [4] it was 216 nM.
As for `CC(C)Oc1cncc(-c2ccc3[nH]cc(-c4cccc(OC(C)C)n4)c3c2)n1` [Example 226, 5-(6-(1-methylethoxy)-2-pyrazinyl)-3-(6-(1-methylethoxy)-2-pyridinyl)-1H-indole], the IC50 is above 3000 nM in test [1], 616 nM in test [3] and 2200 nM in test [4].
In the case of `CC(C)Oc1cncc(-c2ccc3[nH]cc(-c4cccc(N5CCCC5=O)n4)c3c2)n1` [Example 229, 1-(6-(5-(6-(1-methylethoxy)-2-pyrazinyl)-1H-indol-3-yl)-2-pyridinyl)-2-pyrrolidinone], the IC50 in test [1] is above 3000 nM; in test [3] it was 147 nM; in test [4], 251 nM.
For `Nc1ccc2[nH]cc(-c3cncc(N4CCC(N)CC4)n3)c2c1` [Example 233, 3-(6-(4-aminopiperidin-1-yl)pyrazin-2-yl)-1H-indol-5-amine], in that order: above 3000 nM, 1760 nM and 845 nM.
On to `CCC(=O)Nc1ccc2[nH]cc(-c3cncc(N4CCC(N)CC4)n3)c2c1` [Example 234, N-(3-(6-(4-aminopiperidin-1-yl)pyrazin-2-yl)-1H-indol-5-yl)propionamide], for which the results for the IC50 in test [1], in test [3] and in test [4] were 2570 nM, 348 nM and 161 nM, respectively.
For `NC1CCN(c2cncc(-c3c[nH]c4ccc(NC(=O)c5ccccc5)cc34)n2)CC1` [Example 235, N-(3-(6-(4-aminopiperidin-1-yl)pyrazin-2-yl)-1H-indol-5-yl)benzamide], in that order: 1870 nM, 151 nM and 121 nM.
On to `NC1CCN(c2cncc(-c3c[nH]c4ccc(C(=O)O)cc34)n2)CC1` [Example 237, 3-(6-(4-aminopiperidin-1-yl)pyrazin-2-yl)-1H-indole-5-carboxylic acid], for which the figures for the IC50 in test [1], in test [3] and in test [4] were 325 nM, 122 nM and 195 nM, respectively.
The like results for `NC(=O)c1ccc2[nH]cc(-c3cncc(N4CCC(N)CC4)n3)c2c1` [Example 238, 3-(6-(4-aminopiperidin-1-yl)pyrazin-2-yl)-1H-indole-5-carboxamide] were, in that order, 755 nM, 311 nM and 107 nM.
Take `CC(C)NC(=O)c1ccc2[nH]cc(-c3cncc(N4CCC(N)CC4)n3)c2c1` [Example 239, 3-(6-(4-aminopiperidin-1-yl)pyrazin-2-yl)-N-isopropyl-1H-indole-5-carboxamide]: the IC50 in test [1] was above 3000 nM; in test [3], 347 nM; in test [4] it was 166 nM.
